Results published in publication PMC6891768 (Marine Drugs, 2019).
Entries after “also recorded” stand apart in the source; their conditions may differ. Like-named read-outs stand apart in the source and are kept apart here.

Assays:
[1] = biological target: T1, Torpedo electric organ membrane nAChRs (Tetronarce californica, UniProt P02710+P02714+P02718); assay: biochemical; type: binding
T1 construct: from tissue; host or cells: Torpedo electric organ membranes

[2] = biological target: T2, human α4β2 neuronal nAChR expressed in tsA201 cells (Homo sapiens, UniProt P17787+P43681); assay: Activation of human α4β2 neuronal nAChR, membrane depolarization FlexStation assay; type: cell-based
T2 construct: expressed in transfected cells
Protocol: Figure 3 Activation of the human α4β2 neuronal nAChR expressed in tsA201 cells as measured by membrane depolarization using the FlexStation assay. Each point generally is the mean of four separate measurements. All responses were normalized with respect to the response of the cells to 0.5 μM epibatidine. Potency and efficacy estimates from these curves are found in Table 1.
TsA201 cells expressing human α4β2 were maintained in media consisting of Dulbecco’s Modified Eagle medium supplemented with 10% FBS, 100 units/mL penicillin and 100 μg/mL streptomycin, 2 mM L-glutamine, 0.5 mg/mL zeocin and 0.6 mg/mL geneticin [55]. Cells were grown in 75 cm^2 culture flasks, which were housed in a humidified incubator (Fisher Scientific, Atlanta, GA, USA at 37 °C in an atmosphere of 5% CO2. They were grown to around 80–90% confluence after harvesting with 0.25% trypsin and being split weekly at a subcultivation ratio of between 1:6 and 1:10.
(§1) Our experimental protocol was based on the initial study of Fitch et al.. Cells were seeded at a density of roughly 5 × 10^4 to 10^5 cells/well in 96-well flat-bottom black wall culture plates coated with 50 μg /ml poly-D-lysine hydrobromide (Sigma-Aldrich, 70–150 kDa) and grown overnight in 100 μL culture medium. A proprietary membrane potential dye obtained from Molecular Devices (San Diego, CA, USA) was prepared by dissolving one bottle of dye into 30 mL of Hanks Saline (pH = 7.4) containing 20 mM HEPES buffer. The cells were incubated with 100 μL of dye for 30 min at 37 °C prior to the robotically controlled concentration-response experiment. Serial dilutions of a compound for dose-response analysis were prepared in 96-well plates by evaporation of a methanolic stock solution and then reconstituted in the appropriate volume of Hanks saline. Fluid transfer and readings were performed by a FlexStation fluorimeter (Molecular Devices). Excitation and emission wavelengths were set to 530 nm and 565 nm with a cutoff of 550 nm. The first 17 s were used as a basal reading. At 18 s, a test compound was added to determine the EC50, followed by addition of 25 μL KCl (40 mM final concentration) at 160 s to serve as a fluorescence calibrant. Compounds that had no measurable depolarizing activity on the TsA201 cells were then tested for their ability to inhibit a 5 µM control ACh response. Data were fitted and graphed with Prism (GraphPad) to determine the EC50.

[3] = tested on: vertebrate brain and neuromuscular nAChRs; assay: Overall comparison of agonist potency and binding affinity at vertebrate nAChRs; conditions: for activity relative to that predicted if the one form was solely active: several vertebrate brain and neuromuscular nAChRs
From the text: PTHP was the only anabaseine analog that approached anabaseine in potency and binding affinity.
The ability of a variety of 2-(aryl)-1,4,5,6-tetrahydropyrmidines to block neuromuscular nAChRs and produce teratogenic effects in chick embryos was reported long ago [45, 46]. Some of these compounds were reported to be nAChR agonists. The only study of PTHP on neurons was that of Upshall et al. on leech Retzius cells. Our results also indicate that PTHP is a potent agonist at neuronal as well as neuromuscular nAChRs. […] For PTHP to be equipotent with anabaseine, based on the I^+ form being the only active form, its EC50 would need to be ~1/3 of the EC50 of anabaseine, since the anabaseine (I^+) is ~1/3 of its total concentration.

[4] = biological target: T3, human fetal (TE671 cells) skeletal muscle nAChR (Homo sapiens, UniProt P02708+P07510+Q07001); assay: Activation of human fetal skeletal muscle nAChR (TE671 cells), membrane depolarization FlexStation assay; type: cell-based
T3 construct: endogenous in cells; host or cells: TE671 cells (human)
T3 sequence (Q07001 22-517): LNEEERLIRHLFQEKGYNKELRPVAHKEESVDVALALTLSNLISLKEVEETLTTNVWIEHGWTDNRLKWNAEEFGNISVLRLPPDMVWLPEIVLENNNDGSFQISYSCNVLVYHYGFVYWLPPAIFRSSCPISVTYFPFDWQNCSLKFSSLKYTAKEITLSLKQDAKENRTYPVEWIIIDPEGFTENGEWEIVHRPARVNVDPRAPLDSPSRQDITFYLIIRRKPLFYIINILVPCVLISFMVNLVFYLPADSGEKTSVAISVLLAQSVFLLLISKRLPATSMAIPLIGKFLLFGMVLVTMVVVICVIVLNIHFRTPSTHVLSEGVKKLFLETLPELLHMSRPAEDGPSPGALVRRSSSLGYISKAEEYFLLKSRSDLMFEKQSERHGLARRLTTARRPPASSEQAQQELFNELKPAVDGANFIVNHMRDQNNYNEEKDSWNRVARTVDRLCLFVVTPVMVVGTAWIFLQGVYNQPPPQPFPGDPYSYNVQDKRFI
T3 sequence (P02708 21-457): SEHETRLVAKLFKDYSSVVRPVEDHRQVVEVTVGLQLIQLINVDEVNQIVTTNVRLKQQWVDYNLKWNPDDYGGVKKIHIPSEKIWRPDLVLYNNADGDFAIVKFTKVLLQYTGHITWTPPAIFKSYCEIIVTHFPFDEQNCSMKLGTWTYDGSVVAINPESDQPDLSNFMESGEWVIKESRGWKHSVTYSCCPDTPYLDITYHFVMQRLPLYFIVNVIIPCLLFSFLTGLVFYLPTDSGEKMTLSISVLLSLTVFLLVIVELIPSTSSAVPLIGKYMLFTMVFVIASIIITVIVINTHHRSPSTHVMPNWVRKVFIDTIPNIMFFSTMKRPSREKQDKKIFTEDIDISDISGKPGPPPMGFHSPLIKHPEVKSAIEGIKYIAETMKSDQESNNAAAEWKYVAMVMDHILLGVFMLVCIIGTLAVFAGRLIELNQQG
T3 sequence (P07510 23-517): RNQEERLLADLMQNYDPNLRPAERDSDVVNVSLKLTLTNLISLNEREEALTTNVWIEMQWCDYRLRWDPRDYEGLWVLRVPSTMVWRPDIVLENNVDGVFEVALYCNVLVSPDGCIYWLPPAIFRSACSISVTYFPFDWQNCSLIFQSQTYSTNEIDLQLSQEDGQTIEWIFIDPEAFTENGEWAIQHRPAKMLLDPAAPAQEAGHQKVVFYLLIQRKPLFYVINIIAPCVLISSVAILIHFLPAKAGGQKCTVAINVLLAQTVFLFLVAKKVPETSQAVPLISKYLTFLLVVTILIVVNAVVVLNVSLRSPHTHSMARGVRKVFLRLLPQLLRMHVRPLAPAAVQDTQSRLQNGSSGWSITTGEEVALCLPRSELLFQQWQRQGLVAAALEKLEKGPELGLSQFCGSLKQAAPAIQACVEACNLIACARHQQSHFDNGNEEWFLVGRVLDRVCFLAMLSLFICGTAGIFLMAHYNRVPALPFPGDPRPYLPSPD
T3 sequence (P11230 24-501, further chain): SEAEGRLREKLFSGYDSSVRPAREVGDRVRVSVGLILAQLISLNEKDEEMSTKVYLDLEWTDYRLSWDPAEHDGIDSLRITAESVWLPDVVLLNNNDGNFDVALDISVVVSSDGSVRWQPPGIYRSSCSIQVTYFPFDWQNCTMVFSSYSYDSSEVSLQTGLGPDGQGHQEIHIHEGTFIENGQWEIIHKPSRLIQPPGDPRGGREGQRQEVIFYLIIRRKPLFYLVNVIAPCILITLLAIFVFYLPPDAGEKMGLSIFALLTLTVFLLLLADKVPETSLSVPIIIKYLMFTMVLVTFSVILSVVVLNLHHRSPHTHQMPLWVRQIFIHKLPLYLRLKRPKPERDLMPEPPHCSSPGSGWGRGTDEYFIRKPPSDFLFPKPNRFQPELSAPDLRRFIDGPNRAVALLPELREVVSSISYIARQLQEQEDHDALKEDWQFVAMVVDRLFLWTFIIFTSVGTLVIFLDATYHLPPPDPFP
Protocol: Figure 4 Activation of the human fetal (TE671 cells) skeletal muscle nAChR by the various stable anabaseine analogs measured by membrane depolarization using the FlexStation assay. Each point is generally the mean of four separate measurements. Responses were normalized to the 5 μM epibatidine response. Potency and efficacy estimates from these curves are found in Table 1.
as §1

[5] = Ionization and ring-chain form distribution in water; type: physicochemical
From the text: Figure 2 Concentrations of the three major forms of anabaseine as a function of pH as determined by UV spectrophotometry. Left Ordinate: Concentration of each form expressed as % of the total anabaseine concentration. The red curve is the estimated cyclic imine concentration and the blue curve is the concentration of the cyclic iminium or the monocationic ammonium-ketone form of anabaseine (Assuming that KH = 1.0, the concentrations of these ionized forms are equal). Right ordinate: pH dependence of anabaseine inhibition of [^3H]-MCC binding to rat brain α4β2 receptors (Standard error bars included). Anabaseine inhibition (mean ± SEM) at each pH was the average of six replicate measurements.
Since the two monocationic forms show the same pH dependence and the same concentration when expressed as % of total anabaseine, another approach was required to assess their activities separately. We resorted to synthesizing and testing stable analogs that resemble the three anabaseine forms. […] The monocationic ammonium-ketone open-chain form analog selected was 5-methylamino-1-(3-pyridyl)-1-pentanone, MAPP, shown in Figure 1; it mainly ([…]) exists in their open-chain form in water at physiological pH; its cyclic imine or iminium form, N-methylanabaseine, is present in very small concentration (≤5%). […]

[6] = biological target: T4, rat α7 nAChR (Rattus norvegicus, UniProt Q05941); assay: biochemical; type: binding
T4 construct: from tissue; host or cells: rat brain membranes
T4 sequence (Q05941 23-502): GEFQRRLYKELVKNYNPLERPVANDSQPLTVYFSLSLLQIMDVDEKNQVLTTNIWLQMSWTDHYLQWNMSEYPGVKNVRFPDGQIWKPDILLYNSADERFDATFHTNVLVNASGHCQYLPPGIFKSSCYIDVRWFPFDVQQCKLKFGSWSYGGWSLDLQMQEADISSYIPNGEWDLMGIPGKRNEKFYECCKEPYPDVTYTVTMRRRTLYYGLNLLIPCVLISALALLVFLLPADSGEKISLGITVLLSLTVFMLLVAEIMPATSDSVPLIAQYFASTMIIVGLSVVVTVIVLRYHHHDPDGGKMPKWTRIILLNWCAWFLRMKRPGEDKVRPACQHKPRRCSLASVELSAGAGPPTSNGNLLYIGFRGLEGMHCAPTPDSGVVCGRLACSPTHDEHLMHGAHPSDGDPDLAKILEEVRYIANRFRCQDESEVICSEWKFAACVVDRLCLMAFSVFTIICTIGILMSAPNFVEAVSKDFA

[7] = biological target: T5, rat brain α4β2 nAChR (Rattus norvegicus, UniProt P09483+P12390); assay: [3H]-cytisine displacement binding, rat brain membranes
T5 construct: from tissue; host or cells: whole rat brain membranes
T5 sequence (P09483 31-630): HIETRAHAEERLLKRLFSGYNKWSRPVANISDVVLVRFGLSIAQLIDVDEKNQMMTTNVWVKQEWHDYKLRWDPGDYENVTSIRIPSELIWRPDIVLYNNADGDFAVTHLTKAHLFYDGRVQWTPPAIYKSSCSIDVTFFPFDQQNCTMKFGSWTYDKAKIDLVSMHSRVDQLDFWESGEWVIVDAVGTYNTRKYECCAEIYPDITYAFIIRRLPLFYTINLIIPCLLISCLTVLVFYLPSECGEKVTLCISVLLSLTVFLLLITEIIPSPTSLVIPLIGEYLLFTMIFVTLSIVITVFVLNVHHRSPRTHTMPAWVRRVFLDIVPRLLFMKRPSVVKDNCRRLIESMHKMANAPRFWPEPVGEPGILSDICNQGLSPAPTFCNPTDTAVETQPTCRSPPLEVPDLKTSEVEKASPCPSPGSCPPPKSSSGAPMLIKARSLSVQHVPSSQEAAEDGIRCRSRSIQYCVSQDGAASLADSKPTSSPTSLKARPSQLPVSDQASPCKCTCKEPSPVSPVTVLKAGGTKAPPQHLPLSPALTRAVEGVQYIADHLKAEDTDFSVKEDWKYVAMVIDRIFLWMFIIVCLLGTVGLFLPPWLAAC
T5 sequence (P12390 25-500): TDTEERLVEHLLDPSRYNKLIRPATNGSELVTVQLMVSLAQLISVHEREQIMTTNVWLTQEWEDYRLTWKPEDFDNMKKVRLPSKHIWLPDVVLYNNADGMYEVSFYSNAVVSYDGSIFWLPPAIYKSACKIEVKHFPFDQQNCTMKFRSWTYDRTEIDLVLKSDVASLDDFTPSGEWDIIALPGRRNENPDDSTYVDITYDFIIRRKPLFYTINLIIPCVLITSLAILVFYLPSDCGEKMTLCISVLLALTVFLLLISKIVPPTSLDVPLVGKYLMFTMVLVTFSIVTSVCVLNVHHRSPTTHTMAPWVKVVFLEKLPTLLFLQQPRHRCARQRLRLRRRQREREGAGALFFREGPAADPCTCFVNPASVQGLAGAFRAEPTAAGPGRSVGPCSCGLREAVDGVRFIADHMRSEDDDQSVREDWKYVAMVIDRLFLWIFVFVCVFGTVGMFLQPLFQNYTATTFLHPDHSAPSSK

[8] = biological target: T6, rat brain α4β2 nAChRs (Rattus norvegicus, UniProt P09483+P12390); assay: [3H]-methylcarbamylcholine binding to rat brain membranes, pH dependence
T6 construct: from tissue; host or cells: whole rat brain membranes
T6 sequence (P09483 31-630): as the sequence (P09483 31-630) above
T6 sequence (P12390 25-500): as the sequence (P12390 25-500) above
From the text: Initially, we measured the pH-dependent binding of [^3H]-methylcarbamylcholine ([^3H]-MCC) to rat brain α4β2 nAChRs. In the absence of anabaseine we found a large (approximately 3-fold) enhancement of [^3H]-MCC binding as pH increased from 6.0 to 7.8. While interesting in its own regard, since MCC is permanently ionized, this marked pH dependence of [^3H]-MCC nAChR affinity complicated the analysis of the effect of pH on anabaseine binding, which was indirectly measured by [^3H]-MCC displacement. Anabaseine inhibition of [^3H]-MCC binding at each pH in Figure 2 is expressed with respect to the binding of [^3H]-MCC alone at the same pH, so as to compensate for [^3H]-MCC binding pH dependence. […]
Figure 2 Concentrations of the three major forms of anabaseine as a function of pH as determined by UV spectrophotometry. Left Ordinate: Concentration of each form expressed as % of the total anabaseine concentration. […]
[^3H]-[…] ([^3H]-MCC) binding assays with rat brain membranes were carried out as previously reported with a final concentration of 0.5 nM [^3H]-MCC [8, 54]; 2.8 µM atropine sulfate (Sigma-Aldrich) was added to inhibit binding to muscarinic receptors. […] Nonspecific binding was measured in the presence of 1 mM (S)-nicotine hydrogen tartrate (Sigma-Aldrich). […]

[9] = cited from earlier work
[10] = biological target: T7, human GABAA receptor (UniProt P28472+P62813); assay: GABAA receptor activation, membrane depolarization FlexStation assay (WSS1 cells); type: cell-based; conditions: human GABAA receptor in HEK-derived WSS1 cells
T7 construct: host or cells: WSS1 cells (HEK cell line)
T7 sequence (P62813 28-455): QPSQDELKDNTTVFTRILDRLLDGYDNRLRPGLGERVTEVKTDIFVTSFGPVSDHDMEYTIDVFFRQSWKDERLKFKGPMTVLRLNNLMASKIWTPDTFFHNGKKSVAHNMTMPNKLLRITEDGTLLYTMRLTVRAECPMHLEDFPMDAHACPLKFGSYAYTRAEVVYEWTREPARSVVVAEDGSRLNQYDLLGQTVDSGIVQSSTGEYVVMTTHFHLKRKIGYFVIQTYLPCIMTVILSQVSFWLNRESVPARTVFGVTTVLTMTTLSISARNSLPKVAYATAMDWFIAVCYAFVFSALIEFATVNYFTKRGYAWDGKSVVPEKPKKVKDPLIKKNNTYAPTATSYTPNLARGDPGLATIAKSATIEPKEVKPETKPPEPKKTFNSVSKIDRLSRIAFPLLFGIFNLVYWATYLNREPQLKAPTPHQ
T7 sequence (P28472 26-473): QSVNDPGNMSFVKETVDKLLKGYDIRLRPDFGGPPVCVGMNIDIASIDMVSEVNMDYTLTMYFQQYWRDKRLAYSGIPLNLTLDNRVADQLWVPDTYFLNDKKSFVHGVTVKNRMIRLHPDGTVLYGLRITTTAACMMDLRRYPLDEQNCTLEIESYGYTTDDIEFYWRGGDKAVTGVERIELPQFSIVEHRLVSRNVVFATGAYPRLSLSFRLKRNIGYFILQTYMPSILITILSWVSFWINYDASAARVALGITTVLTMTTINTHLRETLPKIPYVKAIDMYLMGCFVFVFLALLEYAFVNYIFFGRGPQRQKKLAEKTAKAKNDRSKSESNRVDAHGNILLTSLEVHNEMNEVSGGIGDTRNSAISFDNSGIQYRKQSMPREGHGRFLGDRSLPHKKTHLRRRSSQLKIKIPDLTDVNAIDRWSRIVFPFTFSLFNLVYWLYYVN
T7 sequence (P18508 39-466 partner): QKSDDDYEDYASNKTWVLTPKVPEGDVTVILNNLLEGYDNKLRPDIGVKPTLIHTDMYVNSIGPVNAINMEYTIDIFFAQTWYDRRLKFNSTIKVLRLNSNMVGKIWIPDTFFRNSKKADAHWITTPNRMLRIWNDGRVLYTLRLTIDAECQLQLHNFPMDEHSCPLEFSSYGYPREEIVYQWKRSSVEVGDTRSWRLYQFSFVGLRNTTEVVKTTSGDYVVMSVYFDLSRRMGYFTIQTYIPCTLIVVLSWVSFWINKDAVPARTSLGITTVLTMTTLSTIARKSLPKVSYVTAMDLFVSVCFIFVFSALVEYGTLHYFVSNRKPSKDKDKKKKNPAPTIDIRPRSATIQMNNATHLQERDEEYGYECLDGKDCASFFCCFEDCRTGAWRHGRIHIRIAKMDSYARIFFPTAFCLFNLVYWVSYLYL
Protocol: Figure 5 Investigation of possible activation of the human GABAA receptor measured by membrane depolarization using a FlexStation assay. Each point is the mean of three separate measurements.
WSS1 cells from ATCC (Manassas, VA, USA) which express functional GABAA receptors were cultured as previously described by Wong et al.. The cells were grown to near confluence and then transferred to black well, clear bottom 96-well assay plates (Corning Incorporated, Corning, NY, USA) 12–18 h prior to the assay. Molecular Devices blue dye (Sunnyvale, CA, USA) was reconstituted as previously described. The WSS1 cells were allowed to come to room temperature, the culture medium was then aspirated, replaced with the blue dye and equilibrated for 30 min before being placed on a FlexStation 3 plate reader (Molecular Devices, Sunnyvale, CA, USA). […] Programmed readings and data analysis were performed as previously described.

[11] = no reference given; cited from earlier work
[12] = biological target: T6, rat brain α4β2 nAChRs; conditions: read-out: Kd of radioligand with rat brain membranes; cited from earlier work
[13] = displacement of [3H]-cytisine, rat brain membranes, read-out: Ki Neuronal nAChR Rat α4β

SMILES: c1ccc(-c2cccnc2)nc1 [2,3′-Bipyridyl, 2,3′-bipyridyl]
- IC50 [1]: 343 ± 48 µM
- EC50 [2]: > 1000 µM
- activity relative to that predicted if the one form was solely active [3]: ≤ 1%
- EC50 [4]: 660 ± 60 µM
- fraction of molecules unionized ([5]; pH 7.4): > 99.9%
- Ki [6]: > 2300 µM
- Ki [7, 13]: > 50 µM

SMILES: c1cncc(C2=NCCCC2)c1 [Anabaseine, anabaseine, reference compound]
- IC50 ([1]; read-out: IC50 Neuromuscular nAChR Torpedo Electric Organ): 0.29 ± 0.18 µM
- pH dependence of inhibition (displacement) of [3H]-MCC binding ([8]; fixed anabaseine concentration, pH 5.8 to 7.8, relative to [3H]-MCC alone at the same pH): did decrease with increased pH
- cyclic iminium (I+) form as fraction of total concentration ([9]; pH 7.4): ~ 1/3
- EC50 ([2]; tsA201 cells, membrane depolarization, normalized to 0.5 μM epibatidine response, read-out: EC50 Neuronal nAChR Human α4β2): 2.85 ± 1 µM
- EC50 ([4]; TE671 cells, membrane depolarization, normalized to 5 μM epibatidine response, read-out: EC50 Neuromuscular nAChR Human TE671): 1.2 µM
- Ki ([6]; read-out: Ki Neuronal nAChR Rat α7): 1.87 ± 0.1 µM
- Ki [7]: 0.096 ± 0.01 µM
- GABAA receptor agonist activity [10]: not GABAA agonists; also recorded: no activity was detected

SMILES: CNCCCCC(=O)c1cccnc1 [MAPP, 5-methylamino-1-(3-pyridyl)-1-pentanone]
- IC50 [1]: > 500 µM
- concentration of cyclic imine or iminium form (N-methylanabaseine) ([9]; in water at physiological pH): ≤ 5%
- EC50 [2]: > 2000 µM
- activity relative to that predicted if the one form was solely active [3]: ≤ 1%
- EC50 [4]: > 1000 µM
- Ki [6]: > 2000 µM
- Ki [7, 13]: 10 µM

SMILES: Cl.c1cncc(C2=NCCCN2)c1 [PTHP, 2-(3-pyridyl)-1,4,5,6-tetrahydropyrimidine hydrochloride]
- IC50 [1]: 0.47 ± 0.01 µM
- EC50 [2]: 3.64 ± 1.2 µM
- potency relative to that predicted for the anabaseine cyclic iminium form ([3]; from Figure 3, Figure 4 and Table 1): approximately 30%
- EC50 [4]: 1.7 ± 0.3 µM
- pKa of amidinium group [11]: > 10
- fraction ionized ([5]; pH 7.4, predicted): > 99%
- Ki [6]: 1.54 ± 0.76 µM
- Ki [7, 13]: 0.38 ± 0.07 µM

SMILES: CNC(=O)OCC[N+](C)(C)C [[^3H]-MCC, [^3H]-methylcarbamylcholine]
- Kd [12]: 0.011 µM

SMILES: [3H]CNC(=O)OCC[N+](C)(C)C [[^3H]-MCC, [^3H]-methylcarbamylcholine]
- enhancement of binding with increasing pH ([8]; pH increased from 6.0 to 7.8, absence of anabaseine): approximately 3 fold

SMILES: c1cncc(C2=NCCC2)c1 [myosmine]
- GABAA receptor agonist activity [10]: not GABAA agonists; also recorded: no activity was detected
